ChEMBL document CHEMBL4823279, “Epigenetic Manipulation to Trigger Production of Guaiane-Type Sesquiterpenes from a Marine-Derived Spiromastix sp. Fungus with Antineuroinflammatory Effects” (J Nat Prod, 2021)
The source made the active and inactive calls. No cut-off for these calls is given here.

How the values were obtained:
[1] = Cytotoxicity against mouse BV-2 cells assessed as reduction in cell viability measured after 24 hrs by MTT assay; assay type: cell-based
BV-2 [2] = assay: Anti-neuroinflammatory activity in mouse BV-2 cells assessed as inhibition of LPS-induced NO production measured after 24 hrs by Griess reagent based assay; assay type: functional, cell-based; settings: BV-2, 24 h
BV-2 [3] = assay: Anti-neuroinflammatory activity against LPS stimulated mouse BV-2 cells assessed as reduction in iNOS protein expression measured after 24 hrs in presence of LPS by western blot analysis; assay type: functional, cell-based; settings: dose 1-10 µM
BV-2 [4] = assay: Anti-neuroinflammatory activity against LPS stimulated mouse BV-2 cells assessed as reduction in COX-2 protein expression at 1 to 10 uM measured after 24 hrs in presence of LPS by western blot analysis; assay type: functional, cell-based; settings: dose 1-10 µM
BV-2 [5] = assay: Inhibition of TLR4 production in LPS stimulated mouse BV-2 cells at 1 to 10 uM preincubated with LPS for 1 hr followed by incubation with compound for 16 hrs by western blot analysis; assay type: functional, cell-based; settings: dose 1-10 µM
[6] = molecular target: c-Jun N-terminal kinase (Mus musculus) (UniProt Q91Y86+Q9WTU6+Q61831); assay: Inhibition of JNK phosphorylation in LPS stimulated mouse BV-2 cells at 1 to 10 uM preincubated with LPS for 1 hr followed by incubation with compound for 16 hrs by western blot analysis; assay type: cell-based; settings: dose 1-10 µM
Chain of c-Jun N-terminal kinase (Mus musculus) (Q61831 whole entry, looked up): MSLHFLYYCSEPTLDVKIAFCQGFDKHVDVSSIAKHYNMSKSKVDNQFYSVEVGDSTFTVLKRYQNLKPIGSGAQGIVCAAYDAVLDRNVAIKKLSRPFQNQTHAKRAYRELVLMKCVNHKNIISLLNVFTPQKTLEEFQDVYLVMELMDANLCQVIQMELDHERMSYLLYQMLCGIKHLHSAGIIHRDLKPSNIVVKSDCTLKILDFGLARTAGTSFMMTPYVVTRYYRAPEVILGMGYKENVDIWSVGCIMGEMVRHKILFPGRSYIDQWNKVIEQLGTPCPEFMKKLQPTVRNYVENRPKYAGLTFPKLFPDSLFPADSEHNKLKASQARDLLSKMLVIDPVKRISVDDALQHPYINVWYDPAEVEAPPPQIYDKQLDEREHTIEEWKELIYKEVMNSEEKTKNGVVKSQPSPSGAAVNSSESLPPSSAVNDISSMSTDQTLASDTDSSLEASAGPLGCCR
Chain of c-Jun N-terminal kinase (Mus musculus) (Q91Y86 whole entry, looked up): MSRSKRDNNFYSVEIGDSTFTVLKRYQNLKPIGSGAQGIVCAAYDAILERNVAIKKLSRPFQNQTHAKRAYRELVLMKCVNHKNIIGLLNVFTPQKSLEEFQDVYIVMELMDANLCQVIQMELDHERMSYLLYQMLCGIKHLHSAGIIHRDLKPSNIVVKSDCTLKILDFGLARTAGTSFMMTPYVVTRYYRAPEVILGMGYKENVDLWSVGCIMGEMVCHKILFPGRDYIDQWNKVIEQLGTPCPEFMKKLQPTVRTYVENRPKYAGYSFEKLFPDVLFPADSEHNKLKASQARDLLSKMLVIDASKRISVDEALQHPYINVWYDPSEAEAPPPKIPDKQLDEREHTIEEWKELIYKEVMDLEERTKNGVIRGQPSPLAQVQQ
Chain of c-Jun N-terminal kinase (Mus musculus) (Q9WTU6 whole entry, looked up): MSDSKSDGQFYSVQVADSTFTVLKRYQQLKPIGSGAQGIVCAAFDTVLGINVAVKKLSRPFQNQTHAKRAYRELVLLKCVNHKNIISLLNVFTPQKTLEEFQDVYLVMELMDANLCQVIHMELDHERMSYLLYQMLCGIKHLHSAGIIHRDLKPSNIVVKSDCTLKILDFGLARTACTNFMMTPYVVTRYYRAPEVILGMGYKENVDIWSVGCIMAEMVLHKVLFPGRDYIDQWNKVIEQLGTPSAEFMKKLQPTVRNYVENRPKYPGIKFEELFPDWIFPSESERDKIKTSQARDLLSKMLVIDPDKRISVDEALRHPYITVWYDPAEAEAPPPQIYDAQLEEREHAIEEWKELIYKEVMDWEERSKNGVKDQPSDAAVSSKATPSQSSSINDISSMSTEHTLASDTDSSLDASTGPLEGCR

BV-2 [7] = assay: Inhibition of ERK phosphorylation in LPS stimulated mouse BV-2 cells at 1 to 10 uM preincubated with LPS for 1 hr followed by incubation with compound for 16 hrs by western blot analysis; assay type: cell-based; settings: dose 1-10 µM
[8] = molecular target: MAP kinase p38 (Mus musculus) (UniProt P47811+O08911+Q9WUI1+Q9Z1B7); assay: Inhibition of p38 phosphorylation in LPS stimulated mouse BV-2 cells at 1 to 10 uM preincubated with LPS for 1 hr followed by incubation with compound for 16 hrs by western blot analysis; assay type: cell-based; settings: dose 1-10 µM
[9] = molecular target: Transcription factor p65 (Mus musculus) (UniProt Q04207); assay: Inhibition of NF-kappaB p65 nuclear translocation in LPS-stimulated mouse BV-2 cells at 10 uM incubated with compound prior to LPS stimulation by DAPI staining based immunofluorescence assay; assay type: cell-based
Chain of Transcription factor p65 (Mus musculus) (Q04207 whole entry): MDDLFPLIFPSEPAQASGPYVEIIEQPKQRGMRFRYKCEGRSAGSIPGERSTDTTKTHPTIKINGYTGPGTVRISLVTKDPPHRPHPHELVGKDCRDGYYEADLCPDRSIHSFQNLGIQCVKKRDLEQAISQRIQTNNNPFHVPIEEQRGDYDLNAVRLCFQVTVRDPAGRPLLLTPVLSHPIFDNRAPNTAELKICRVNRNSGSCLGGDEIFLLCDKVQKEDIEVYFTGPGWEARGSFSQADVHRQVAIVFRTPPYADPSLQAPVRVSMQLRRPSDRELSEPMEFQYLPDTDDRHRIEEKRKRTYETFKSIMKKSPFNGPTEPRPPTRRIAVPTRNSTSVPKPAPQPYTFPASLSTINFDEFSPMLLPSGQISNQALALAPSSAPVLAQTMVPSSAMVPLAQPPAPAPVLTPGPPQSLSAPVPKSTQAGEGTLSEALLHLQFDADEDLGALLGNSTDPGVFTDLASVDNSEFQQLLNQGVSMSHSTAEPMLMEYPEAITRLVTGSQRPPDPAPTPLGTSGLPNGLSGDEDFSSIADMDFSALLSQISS

BV-2 [10] = assay: Anti-neuroinflammatory activity in mouse BV-2 cells assessed as reduction in LPS-stimulated IL-1 beta production at 1 to 10 uM preincubated for 1 hr followed by LPS treatment and measured after 24 hrs by ELISA; assay type: functional, cell-based; settings: dose 1-10 µM, time 25.0 hrs
BV-2 [11] = assay: Anti-neuroinflammatory activity in mouse BV-2 cells assessed as reduction in LPS-stimulated IL-6 production at 1 to 10 uM preincubated for 1 hr followed by LPS treatment and measured after 24 hrs by ELISA; assay type: functional, cell-based; settings: dose 1-10 µM, time 25.0 hrs
BV-2 [12] = assay: Anti-neuroinflammatory activity in mouse BV-2 cells assessed as reduction in LPS-stimulated TNFalpha production at 1 to 10 uM preincubated for 1 hr followed by LPS treatment and measured after 24 hrs by ELISA; assay type: functional, cell-based; settings: dose 1-10 µM, time 25.0 hrs
BV-2 [13] = assay: Anti-neuroinflammatory activity in mouse BV-2 cells assessed as reduction in LPS-stimulated iNOS mRNA expression at 1 to 10 uM by qRT-PCR analysis; assay type: functional, cell-based; settings: dose 1-10 µM
BV-2 [14] = assay: Anti-neuroinflammatory activity in mouse BV-2 cells assessed as reduction in LPS-stimulated COX-2 mRNA expression at 1 to 10 uM by qRT-PCR analysis; assay type: functional, cell-based; settings: dose 1-10 µM
BV-2 [15] = assay: Anti-neuroinflammatory activity in mouse BV-2 cells assessed as reduction in LPS-stimulated IL-1beta mRNA expression by qRT-PCR analysis; assay type: functional, cell-based; settings: dose 1-10 µM
BV-2 [16] = assay: Anti-neuroinflammatory activity in mouse BV-2 cells assessed as reduction in LPS-stimulated IL-6 mRNA expression by qRT-PCR analysis; assay type: functional, cell-based; settings: dose 1-10 µM
BV-2 [17] = assay: Anti-neuroinflammatory activity in mouse BV-2 cells assessed as reduction in LPS-stimulated TNF-alpha mRNA expression by qRT-PCR analysis; assay type: functional, cell-based; settings: dose 1-10 µM

| SMILES | CC50 at 24 h [1] | IC50 (BV-2 [2]) | other results |
| --- | --- | --- | --- |
| Cc1c2c(cc(C(C)(C)O)cc1=O)[C@@H](C)C[C@@H]2O | 39 µM | > 30 µM | – |
| Cc1c2c(cc(C(C)C)cc1=O)[C@](C)(O)C[C@@H]2O | 49 µM | > 30 µM | – |
| Cc1c2c(cc(C(C)C)cc1=O)[C@@H](C)C[C@H]2O | 78 µM | 26 µM | – |
| CC(C)c1cc2c(c(CO)c(=O)c1)[C@H](O)C[C@@H]2C | 74 µM | 9 µM | Activity (BV-2 [3]): Dose-Dependent Effect; Activity (BV-2 [4]): Active; inhibition (BV-2 [5]): inactive; inhibition [6]: inactive; inhibition (BV-2 [7]): inactive; inhibition [8]: inactive; inhibition [9]: Active; Activity (BV-2 [10]): Active; Activity (BV-2 [11]): Active; Activity (BV-2 [12]): Active; Activity (BV-2 [13]): Active; Activity (BV-2 [14]): Active; Activity (BV-2 [15]): Active; Activity (BV-2 [16]): Active; Activity (BV-2 [17]): Active |
| Cc1c2c(cc(C(C)C)cc1=O)[C@@H](C)CC2 | 76 µM | > 30 µM | – |
| CC(C)c1cc2c(c(CO)c(=O)c1)[C@@H](O)C[C@@H]2C | 49 µM | 20 µM | – |
| Cc1c2c(cc(C(C)C)cc1=O)[C@@](C)(O)CC2 | 79 µM | > 30 µM | – |
| CNC(=N)NCCC[C@H](N)C(=O)O [TILARGININE] | > 200 µM | 10 µM | – |
| CC(C)c1cc2c(c(CO)c(=O)c1)CC[C@@]2(C)O | 61 µM | > 30 µM | – |
| Cc1c2c(cc(C(C)C)cc1=O)[C@@H](C)C[C@@H]2O | 35 µM | > 30 µM | – |
